How the values were obtained:
Format in all cases: in vivo
wheat leaf rust = assay: Test Example 2: foliar spray on wheat, wheat leaf rust, control value; details: wheat (SHIROGANEKOMUGI) leaf spray, Compound I 0, 8 days at 23° C.
Description: A plastic pot was filled with sandy soil and seeds of wheat (SHIROGANEKOMUGI) were sown on it, followed by cultivation in a greenhouse for 10 days. A wettable powder of the compound I was prepared by mixing 10 parts of the compound I, 35 parts of a mixture of white carbon and a polyoxyethylene alkyl ether sulfate ammonium salt (weight ratio of 1:1) and 55 parts of […], followed by grinding the mixture. A wettable powder of the compound (1b) was prepared by mixing 10 parts of the compound (1b), 35 parts of a mixture of white carbon and a polyoxyethylene alkyl ether sulfate ammonium salt (weight ratio of 1:1) and 55 parts of […], followed by grinding the mixture. […] After allowing to stand overnight at 23° C. under high humidity followed by cultivation in an artificial climate laboratory at 23° C. for 8 days, leaf area and lesion area of the wheat leaves were checked and the incidence of disease was calculated by Equation 3. […]
(§1) In order to calculate a control value, the same test was conducted in which the plants had been treated with none of the test compounds and the incidence of disease was determined.
(§2) The control value was calculated by the Equation 2 based on the incidence of disease thus determined. […]

[1] = system: Fusarium solani f. sp. pisi; assay: Test Example 1: seed treatment of pea, pea root rot, control value; details: Pisum sativum L seeds, Compound I 0, pea root rot after 16 days
Description: A DMSO solution of the compound I and a DMSO solution of the compound (1b) were respectively prepared. These solutions were mixed to prepare a DMSO solution containing predetermined concentrations of the compound I and the compound (1b). Ten (10) μL of the DMSO solution and 10 g of seeds of Pisum sativum L were mixed by shaking in a 50-ml conical tube and then allowed to stand overnight to prepare treated seeds. A plastic pot was filled with sandy soil and the treated seeds were sown on it and then covered with sandy soil which had been mixed with a bran culture of Fusarium solani f. sp. pisi. The sown seeds were watered and then cultured in a greenhouse at 20 to 24° C. […] After 16 days, the occurrence of pea root rot diseases was checked and the incidence of disease was calculated by Equation 1.
For comparison, a DMSO solution containing a predetermined concentration of the compound (1b) was prepared and subjected to the same test and then the incidence of disease was determined.
as §1, §2

Fusarium graminearum = details: corn (Pioneer) seeds; QoI alone 10 g per 100 kg seeds; 15° C. for 15 days; seedling emergence
Fusarium avenaceum = assay: Test Example 4: seed treatment of corn, soil with Fusarium avenaceum, control value; details: corn (Pioneer) seeds; azoxystrobin alone 10 g per 100 kg seeds; 15° C. for 15 days; seedling emergence
Description: A DMSO solution of the compound I and a DMSO solution of azoxystrobin were respectively prepared. These solutions were mixed to prepare a DMSO solution containing predetermined concentrations of the compound I and azoxystrobin. Twenty-five (25) μL of each of the DMSO solution and 10 g of seeds of corn (Pioneer) were mixed by shaking in a 50-ml conical tube and then allowed to stand overnight to prepare treated seeds. A plastic pot was filled with sandy soil and the treated seeds were sown on it and then covered with sandy soil which had been mixed with a bran culture of Fusarium avenaceum. The sown seeds were watered and then cultured in a greenhouse at 15° C. for 15 days. The number of emerged seedlings was checked and the incidence of disease was calculated by Equation 4.
For comparison, a DMSO solution containing a predetermined concentration of azoxystrobin was prepared and subjected to the same test and then the incidence of disease was determined.
as §1
The control value was calculated by the Equation 2 based on the incidence of disease thus determined.

SMILES	Control value (Fusarium graminearum)	further results
CNC(=O)C(OC)c1ccccc1COc1cc(C)ccc1C (racemic) [Compound (1b)]	83	Control value (wheat leaf rust; Compound (1b) 10 ppm): 50; Control value (wheat leaf rust; Compound (1b) 20 ppm): 81; Control value ([1]; Compound (1b) 1 g/100 kg seeds): 64; Control value ([1]; Compound (1b) 5 g/100 kg seeds): 64
CO/C=C(/C(=O)OC)c1ccccc1Oc1cc(Oc2ccccc2C#N)ncn1 [azoxystrobin]	–	Control value (Fusarium avenaceum): 67
CO/N=C(/C(=O)OC)c1ccccc1COc1ccccc1C [kresoxim-methyl]	67	–
COC(=O)N(OC)c1ccccc1COc1ccn(-c2ccc(Cl)cc2)n1 [pyraclostrobin]	83	–
COC(=O)NCc1cc(/C(C)=N/OCc2cccc(C)n2)ccc1Cl [pyribencarb]	83	–
CON=C(C(=O)OC)c1ccccc1CON=C(C)c1cccc(C(F)(F)F)c1 [trifloxystrobin]	83	–

— patent US8802593B2 (priority 2009, dated 2014)
